What was measured:
horseradish peroxidase = horseradish peroxidase (Armoracia rusticana, UniProt P00433); settings: pH 7
Procedure: A system with a total volume of 0.1 mL comprising a flow cell is constructed. The cell comprises a detection chamber having an interior volume of 5 μl, an inlet for directing a stream of liquid into the detection chamber, and an outlet for directing liquid out of the detection chamber. The detection chamber contains a working electrode for assessing the capability of candidate compounds for inhibiting the catalytic activity of horseradish peroxidase, a carbon paste counter electrode, and downstream from the working electrode, near the outlet, a standard calomel reference electrode. The working electrode is formed by co-depositing on a conductive substrate horseradish peroxidase and a redox polymer formed of poly(4-vinyl pyridine) partially reacted with 2-bromoethylamine and partially complexed with [Os(bpy)2Cl]^+/2+ where bpy=2,2′-bipyridine complex of osmium (2+/3+) and poly(4-vinyl pyridine). The horseradish peroxidase and the redox polymer are crosslinked on the substrate by periodate oxidation, whereby aldehyde functions are produced in the oligosaccharides of the peroxidase, and by adding PEGDGE, polyethylene glycol diglycidyl ether.
An aqueous pH 7 phosphate buffer comprises 0.15 M NaCl and 1 mM hydrogen peroxide. Three liquid samples are prepared, each sample 0.1 mL. […]

acetylcholine esterase = acetylcholine esterase (Homo sapiens, UniProt P22303); assay: electrochemical flow cell assay of inhibition of acetylcholine esterase (esterase/choline oxidase/peroxidase cascade); type: biochemical
acetylcholine esterase, sequence (P22303 32-614): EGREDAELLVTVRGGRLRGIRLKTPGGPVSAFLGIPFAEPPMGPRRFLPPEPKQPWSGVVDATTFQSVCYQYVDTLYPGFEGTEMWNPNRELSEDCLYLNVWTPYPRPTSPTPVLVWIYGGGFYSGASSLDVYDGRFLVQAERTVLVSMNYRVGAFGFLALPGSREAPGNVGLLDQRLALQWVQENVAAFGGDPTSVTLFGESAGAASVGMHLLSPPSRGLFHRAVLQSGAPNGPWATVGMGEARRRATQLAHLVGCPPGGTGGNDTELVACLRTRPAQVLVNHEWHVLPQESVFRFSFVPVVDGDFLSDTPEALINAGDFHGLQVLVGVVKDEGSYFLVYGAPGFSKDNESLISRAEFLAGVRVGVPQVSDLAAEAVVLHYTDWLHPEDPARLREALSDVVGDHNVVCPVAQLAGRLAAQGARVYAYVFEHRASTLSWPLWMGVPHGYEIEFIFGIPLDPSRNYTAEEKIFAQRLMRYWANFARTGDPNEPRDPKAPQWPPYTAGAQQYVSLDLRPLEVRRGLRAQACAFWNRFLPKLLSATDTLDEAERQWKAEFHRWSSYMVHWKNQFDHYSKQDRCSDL
Procedure: An aqueous carrier liquid is prepared in an oxygen-containing atmosphere to comprise the buffer of Example 1 and acetylcholine, the total volume of the liquid being less than 0.1 mL. Two samples are prepared. The first sample contains only the buffered acetylcholine solution; the second sample contains the liquid carrier and 100 pg malathion, an insecticide.
The first sample is introduced into the flow cell through the inlet, and the working electrode is poised at +0.1 V versus the standard calomel electrode. The acetylcholine in the solution is hydrolyzed by the esterase on the electrode, producing choline, which, in turn, combines with dissolved oxygen to form hydrogen peroxide. The hydrogen peroxide is electroreduced to water. An electric current is produced between the electrodes as a result. The current produced provides a baseline against which current produced as a result of enzymatic inhibition is measured.

horseradish peroxidase, sequence (P00433 31-338): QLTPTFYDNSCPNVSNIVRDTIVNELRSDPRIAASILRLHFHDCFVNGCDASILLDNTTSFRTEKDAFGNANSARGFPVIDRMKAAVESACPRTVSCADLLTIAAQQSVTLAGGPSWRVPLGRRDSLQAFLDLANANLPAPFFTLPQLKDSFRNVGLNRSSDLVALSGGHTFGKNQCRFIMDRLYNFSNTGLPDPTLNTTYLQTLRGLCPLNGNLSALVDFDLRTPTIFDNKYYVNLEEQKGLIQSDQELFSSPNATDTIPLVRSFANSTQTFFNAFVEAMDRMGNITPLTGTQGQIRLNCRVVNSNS

Compound | current passing from one electrode to another, versus baseline (inhibition of catalytic activity of horseradish peroxidase) (horseradish peroxidase) | current passing from one electrode to another, versus baseline (inhibition of catalytic activity of acetylcholine esterase) (acetylcholine esterase)
[N-]=[N+]=[N-].[Na+] [azide, sodium azide] | decreased | –
CCOC(=O)CC(SP(=S)(OC)OC)C(=O)OCC (centres unmarked) [malathion] | – | decreased

— patent publication US20020179457A1, “Electrochemical method for high-throughput screening of minute quantities of candidate compounds” (priority 2001, published 2002)
